Test results: patent publication US20100190832A1, “Mechanism-based inhibitors of transthyretin amyloidosis: studies with biphenyl ethers and structural templates” (NATIONAL INSTITUTE OF IMMUNOLOGY., priority 2008, published 2010)
Where two headings read alike, the source gives them in different places.

Target: T1, WT-TTR (Homo sapiens, UniProt P02766)
T1 construct: made in house
Assay: Stagnant acid-mediated TTR aggregation (fibril formation) assay, turbidity at 340 nm
Format: biochemical
Conditions: for remaining activity at 100 µM / remaining activity at 50 µM: 72 h; for remaining activity at 50 µM: read-out: % FF at 50 μM; for IC50: Table 3, WT-TTR 7.2 μM, read-out: IC50
Procedure: Stagnant Acid-Mediated TTR Aggregation Assay.
After 1 h, the samples were diluted with 0.5 ml of 200 mM sodium acetate buffer containing 100 mM KCl and 1 mM EDTA. Samples after mild vortexing were incubated at 37° C. for the desired amount of time without stirring to evaluate the efficacy of the inhibitors. The extent of aggregation was probed by turbidity measurements at 340 nm using Tecan GENios microplate reader. […] The extent of TTR fibril formation in the absence of inhibitor was defined to be 100%. […] All experiments were done in triplicate. […] The IC50 was determined by plotting mean of % inhibition vs log and fitted to sigmoid equation:
The experiments were conducted at 25° C. After 1 h, the samples were diluted with 0.5 mL of 200 mM sodium acetate buffer pH 4.4 containing 100 mM KCl and 1 mM EDTA, vortexed, and incubated at 37° C. for 72 h. […] The stoichiometry of the binding of the inhibitors was determined by HPLC as described by Green et al., N. S. Palaninathan, S, L, Sacchettini, J. e. […] Dissociation constant of binding of these compounds to TTR was determined by fluorescence titration, and data were fitted into the Adair equation for two bind mg.

[1] = pH 4.4, compound 100 μM, WT-TTR 7.2 μM, pH 4.4, 37° C., read-out: % FF
[2] = pH 4.4, compound 100 μM, WT-TTR 7.2 μM, pH 4.4, 37° C., read-out: % Inhibition
[3] = biphenyl ether 50 μM, WT-TTR 7.2 μM

Row | SMILES | remaining activity at 100 µM [1] | inhibition at 100 µM [2] | other results
1 | Cc1cc(C(=O)Nc2cccnc2Cl)no1 [Compound C226-2576] | 130% | 0% | 
2 | O=C(O)CCc1nc(-c2cccs2)no1 [Compound C066-2523] | 32.1% | 67.9% | 
3 | O=C(O)C1CSC(c2ccc(Cl)cc2)N1 (stereo not drawn) [Compound K085-0001] | 142% | 0% | 
4 | O=C(O)CCCCCN1C(=O)/C(=C/c2c[nH]c3ccccc23)SC1=S [Compound 2279-3516] |  |  | remaining activity at 100 µM (pH 4.4, read-out: % FF): 126%; inhibition at 100 µM (pH 4.4): 0%
5 | COc1ccccc1NC(=S)N(CCCN1CCCCCC1)Cc1cccs1 [Compound C087-0823] | 104% | 0% | 
6 | O=C(O)C1CSC(c2c(F)cccc2Cl)N1 (stereo not drawn) [Compound K085-0006] | 20.3% | 79.7% | 
7 | Nc1nc(F)cc(Oc2ccc(F)cc2)n1 [Compound 1544-0071] | 84% | 16% | 
8 | COc1cc(COC(C)=O)ccc1Oc1ccc([N+](=O)[O-])cc1[N+](=O)[O-] [Compound 20] |  |  | remaining activity at 50 µM [3]: 69%
9 | Nc1cc(O)nc(SCC(=O)N2CCOCC2)n1 [Compound 3996-0165] | 112% | 0% | 
10 | CCOC(=O)c1sc(=S)n(-c2ccc(Br)cc2)c1N [Compound R052-0946] | 164% | 0% | 
11 | COc1cc(CO)ccc1Oc1ccc([N+](=O)[O-])cc1 [Compound 15] |  |  | remaining activity at 50 µM [3]: 89.5%
12 | COc1cc(CO)ccc1Oc1ccccc1 [Compound 3] |  |  | remaining activity at 50 µM: 61.2%
13 | Cc1ccc(C2NC(C(=O)O)CS2)cc1 (stereo not drawn) [Compound K085-0026] | 14.3% | 85.7% | 
14 | COc1ccc(NC(=S)N(CCCN2CCOCC2)Cc2cccnc2)cc1 [Compound C087-0811] | 98.6% | 1.4% | 
15 | O=Cc1ccc(Oc2ccccc2)c(O)c1 [Compound 2] |  |  | remaining activity at 50 µM: 112%
16 | COc1ccc(NC(=S)N(CCCN2CCOCC2)Cc2cccs2)cc1 [Compound C087-0783] | 102% | 0% | 
17 | COc1cc(CO)ccc1Oc1ccc([N+](=O)[O-])cc1[N+](=O)[O-] [Compound 19] |  |  | remaining activity at 50 µM: 28%; IC50: 20 µM
18 | O=C1/C(=C\c2cccc(O)c2)SC(=S)N1c1ccc(F)cc1 [Compound 3232-1704] | 309% | 0% | 
19 | O=C(O)C1CSC(c2ccc(Cl)c(Cl)c2)N1 (stereo not drawn) [Compound K085-0014] | 102% | 0% | 
20 | Clc1ccc2nc(-c3ccc(Cl)s3)c(NC3CCCCC3)n2c1 [Compound C273-0206] | 138% | 0% | 
21 | O=Cc1ccc(Oc2ccc([N+](=O)[O-])cc2[N+](=O)[O-])c(O)c1 [Compound 17] |  |  | remaining activity at 50 µM: 40.5%; IC50: 55 µM
22 | CCCCC1NC(C(=O)O)CS1 (stereo not drawn) [Compound K085-0025] | 128% | 0% | 
23 | Fc1ccccc1NC(=S)N(CCCN1CCOCC1)Cc1cccnc1 [Compound C087-1168] | 99.3% | 0.7% | 
24 | Cn1c(=O)c2c(nc(Oc3ccc(-n4cnnn4)cc3)n2C)n(C)c1=O [Compound 3615-0252] | 155% | 0% | 
25 | NN1C(=O)/C(=C\c2ccc(Cl)cc2)NC1=S [Compound C249-0056] | 131% | 0% | 
26 | O=C(O)C1CSC(c2cccnc2)N1 (stereo not drawn) [Compound K085-0021] | 144% | 0% | 
27 | CCOC(=O)c1c(N)sc(C(=O)NC2CCCCC2)c1C [Compound R052-1597] | 58.1% | 41.9% | 
28 | O=C1CCCC2=C1C(c1cccc(O)c1)NC(=S)N2 (stereo not drawn) [Compound C157-0040] | 106% | 0% | 

The next lines start with results.

Row | remaining activity at 100 µM [1] | inhibition at 100 µM [2] | SMILES | other results
29 | 104% | 0% | O=C(Nc1c2c(nn1-c1ccc(F)cc1)C[S+]([O-])C2)c1ccccc1F (stereo not drawn) [Compound C077-0216] | 
30 | 138% | 0% | O=C1OC(c2ccc(Cl)cc2Cl)=N/C1=C/c1ccc(Cl)c(Cl)c1 [Compound K088-1297] | 
31 | 68.9% | 31.1% | Cc1ccc2nc(Nc3nc(O)c4ccccc4n3)nc(C)c2c1 [Compound 5594-0187] | 
32 | 122% | 0% | O=C(CSc1nccn1-c1cccc(Cl)c1)Nc1cccc2ccccc12 [Compound C262-0464] | 
33 | 135% | 0% | Oc1ccc(-c2nc3ncccn3c2Nc2ccc(Cl)cc2)cc1 [Compound C239-0727] | 
34 | 107% | 0% | O=C1/C(=C\c2ccc(-c3ccc(Cl)cc3)o2)SC(=S)N1c1cccc(Cl)c1 [Compound 1934-0113] | 
35 | 60.7% | 39.3% | O=C(NCc1ccco1)c1cc(Sc2cccc(Cl)c2)nc2ccccc12 [Compound K784-7215] | 
36 | 96% | 4.06% | Oc1ccc(Nc2nc(-c3ccc(Cl)cc3)nc3ccccc23)cc1 [Compound 5847-1646] | 
37 | 41.9% | 58.1% | CCC(=O)NC(c1ccc2c(c1)OCO2)c1cc(Cl)c2cccnc2c1O (stereo not drawn) [Compound K839-0017] | 
38 | 72.8% | 27.2% | O=C(NC(c1cccc([N+](=O)[O-])c1)c1cc(Cl)c2cccnc2c1O)c1cccnc1 (stereo not drawn) [Compound K839-0117] | 
39 | 136% | 0% | O=C1OC(c2ccc(Cl)cc2Cl)=N/C1=C\c1cccs1 [Compound K075-5819] | 
40 | 71% | 29.1% | O=c1/c(=C\c2ccccc2Cl)sc2nc3ccccc3n12 [Compound 3062-0592] | 
41 | 4.6% | 95.4% | CC(C)C(=O)NC(c1ccccc1)c1ccc2cccnc2c1O (stereo not drawn) [Compound K839-0067] | 
42 | 89.5% | 10.4% | O=C(Nc1c2c(nn1-c1cccc(Cl)c1)C[S+]([O-])C2)c1ccccc1F (stereo not drawn) [Compound C077-0215] | 
43 | 36.7% | 63.3% | O=C(NC(c1ccco1)c1cc(Cl)c2cccnc2c1O)c1cccnc1 (stereo not drawn) [Compound K839-0124] | 
44 | -2.03% | 102% | O=c1c2ccccc2nc2sc(Nc3ccc(F)cc3F)nn12 [Compound K284-2958] | 

Row | remaining activity at 100 µM [1] | inhibition at 100 µM [2] | SMILES | other results
45 | 130% | 0% | Cc1ccccc1Nc1c(-c2ccc(O)cc2)nc2ccc(Cl)cn12 [Compound C273-0223] | 
46 | 117% | 0% | O=c1c2sccc2n(Cc2ccc(F)cc2Cl)c(=O)n1-c1cc(F)ccc1F [Compound C241-0192] | 
47 | 340% | 0% | O=C1/C(=C\c2ccco2)SC(=S)N1c1cccc(F)c1 [Compound 2027-0159] | 
48 | 156% | 0% | O=C(c1cc(-c2ccc(Cl)s2)nc2ccccc12)N1CCOCC1 [Compound C136-0215] | 
49 | 29.6% | 70.4% | O=C(NC(c1ccccc1)c1cc(Cl)c2cccnc2c1O)c1cccnc1 (stereo not drawn) [Compound K839-0113] | 
50 | 449% | 0% | O=C(O)c1cccc(-c2ccc(/C=C3\SC(=S)N(c4cccc(C(F)(F)F)c4)C3=O)o2)c1 [Compound 2027-0438] | 
51 | 46.9% | 53.1% | Cc1nc2c(C(=O)NCc3ccc(F)cc3)cnn2c(O)c1Cc1ccccc1F [Compound C218-0299] | 
52 | 41.8% | 58.2% | O=C(NC1CC1)c1cc(Sc2cccc(Cl)c2)nc2ccccc12 [Compound K784-7224] | 
53 | 294% | 0% | O=C1OC(/C=C/c2ccc(Cl)cc2Cl)=NC/1=C\c1cccs1 [Compound K088-1892] | 
54 | 69.6% | 30.4% | Cc1nc2c(ccc3ccccc32)c(O)c1CN1CCOCC1 [Compound 3453-1337] | 
55 | 107% | 0% | CCN(CC)CCCN(Cc1ccco1)C(=S)Nc1ccc(OC)cc1 [Compound C087-0785] | 
56 | 306% | 0% | Cc1ccccc1Nc1c(-c2ccc(Cl)s2)nc2ccc(Cl)cn12 [Compound C273-0244] | 
57 | 115% | 0% | Cc1ccccc1C1=N/C(=C\c2sccc2C)C(=O)O1 [Compound 1989-9396] | 
58 | 66.9% | 33.1% | Cc1nc2c(ccc3ccccc32)c(O)c1CN1CCCC1 [Compound 3453-1335] | 
59 | 39.2% | 60.8% | NC(=O)CSc1ncc(-c2ccc(Cl)cc2)[nH]1 [Compound C290-0041] | 
